Measured values as given in ChEMBL document CHEMBL1782017, “Synthesis and biological evaluation of new flavonoid fatty acid esters with anti-adipogenic and enhancing glucose consumption activities” (2011).

How the values were obtained:
3T3-L1 [1] = experiment: Antiproliferative activity against mouse 3T3L1 cells after 48 hrs by MTT assay; format: functional; parameters: concentration or dose not given beside the values
3T3-L1 [2] = experiment: Glucose consumption in differentiated mouse 3T3L1 cells in low-glucose medium after 24 hrs by glucose-oxidase method; format: functional, cell-based
3T3-L1 [3] = experiment: Glucose consumption in differentiated mouse 3T3L1 cells in high-glucose medium after 24 hrs by glucose-oxidase method; format: functional, cell-based
3T3-L1 [4] = experiment: Inhibition of adipogenesis in mouse 3T3L1 cells at 100 umol/L after 8 days by Oil red O-staining; format: functional; conditions: 3T3-L1, 192 h
3T3-L1 [5] = experiment: Glucose consumption in differentiated mouse 3T3L1 cells in low-glucose medium at 50 ug/ml after 24 hrs by glucose-oxidase method (Rvb =2.41 +/- 0.22 mmol/L); format: functional
3T3-L1 [6] = experiment: Glucose consumption in differentiated mouse 3T3L1 cells in low-glucose medium at 100 ug/ml after 24 hrs by glucose-oxidase method (Rvb =2.35 +/- 0.19 mmol/L); format: functional
3T3-L1 [7] = experiment: Glucose consumption in differentiated mouse 3T3L1 cells in high-glucose medium at 50 ug/ml after 24 hrs by glucose-oxidase method (Rvb =3.06 +/- 0.29 mmol/L); format: functional
3T3-L1 [8] = experiment: Glucose consumption in differentiated mouse 3T3L1 cells in high-glucose medium at 100 ug/ml after 24 hrs by glucose-oxidase method (Rvb =3.12 +/- 0.32 mmol/L); format: functional
3T3-L1 [9] = experiment: Increase in glucose consumption in differentiated mouse 3T3L1 cells in low-glucose medium at 50 ug/ml after 24 hrs by glucose-oxidase method relative to control; format: functional
3T3-L1 [10] = experiment: Increase in glucose consumption in differentiated mouse 3T3L1 cells in low-glucose medium at 100 ug/ml after 24 hrs by glucose-oxidase method relative to control; format: functional
3T3-L1 [11] = experiment: Increase in glucose consumption in differentiated mouse 3T3L1 cells in high-glucose medium at 100 ug/ml after 24 hrs by glucose-oxidase method relative to control; format: functional

## CCCCCCCCCCCCCCCCCC(=O)Oc1ccc2c(c1)C(=O)/C(=C/c1cccc(Cl)c1)O2
3T3-L1 [1]
  Activity: -0.06%

## CCCCCCCCCCCCCCCCCC(=O)Oc1ccc2c(c1)C(=O)/C(=C/c1cccc([N+](=O)[O-])c1)O2
3T3-L1 [1]
  Activity: -5.03%

## CCCCCCCC/C=C\CCCCCCCC(=O)Oc1ccc2c(=O)c(-c3ccc(OC)cc3)coc2c1 [OLEOYL FORMONONETIN]
3T3-L1 [2]
  Activity: Dose-dependent effect
3T3-L1 [3]
  Activity: Dose-dependent effect
3T3-L1 [4]
  inhibition at 100 µM: 2.52%
3T3-L1 [1]
  Activity: 10.91%
3T3-L1 [5]
  Activity: 5.01 mmol/L
3T3-L1 [6]
  Activity: 6.95 mmol/L
3T3-L1 [7]
  Activity: 6.52 mmol/L
3T3-L1 [8]
  Activity: 7.49 mmol/L

## CCCCCCCCCCCCCCCCCC(=O)Oc1ccc2c(=O)c(Cc3ccc(OC)cc3)coc2c1
3T3-L1 [4]
  inhibition at 100 µM: 1.95%
3T3-L1 [1]
  Activity: -31.87%

## C=CCCCCCCCCC(=O)Oc1ccc2c(c1)C(=O)/C(=C/c1ccc(F)cc1)O2
3T3-L1 [2]
  Activity: Dose-dependent effect
3T3-L1 [3]
  Activity: Dose-dependent effect
3T3-L1 [4]
  inhibition at 100 µM: 25.4%
3T3-L1 [1]
  Activity: 16.67%
3T3-L1 [5]
  Activity: 4.41 mmol/L
3T3-L1 [6]
  Activity: 5.45 mmol/L
3T3-L1 [7]
  Activity: 5.16 mmol/L
3T3-L1 [8]
  Activity: 5.85 mmol/L

## CCCCCCCC/C=C\CCCCCCCC(=O)Oc1ccc2c(c1)C(=O)/C(=C/c1cccc(OC)c1)O2
3T3-L1 [4]
  inhibition at 100 µM: 0%
3T3-L1 [1]
  Activity: -5.41%

## CCCCCCCCCCCCCCCCCC(=O)Oc1ccc2c(c1)C(=O)/C(=C/c1ccc(F)cc1)O2
3T3-L1 [1]
  Activity: -9.45%

## CCCCCCCC/C=C\CCCCCCCC(=O)Oc1ccc2c(c1)C(=O)/C(=C/c1cccc([N+](=O)[O-])c1)O2
3T3-L1 [4]
  inhibition at 100 µM: 15.6%
3T3-L1 [1]
  Activity: 17.55%
3T3-L1 [5]
  Activity: 2.93 mmol/L
3T3-L1 [6]
  Activity: 3.47 mmol/L
3T3-L1 [7]
  Activity: 3.35 mmol/L
3T3-L1 [8]
  Activity: 3.96 mmol/L

## CCCCCCCCCCCCCCCC(=O)Oc1ccc2c(c1)C(=O)/C(=C/c1ccc(OC)c(OC)c1)O2
3T3-L1 [1]
  Activity: -3.72%

## CCCCCCCCCCCCCCCC(=O)Oc1ccc2c(c1)C(=O)/C(=C/c1ccc(Br)cc1)O2
3T3-L1 [1]
  Activity: 1.05%

## CCCCCCCC/C=C\CCCCCCCC(=O)Oc1ccc2c(c1)C(=O)/C(=C/c1ccc(F)cc1)O2
3T3-L1 [2]
  Activity: Dose-dependent effect
3T3-L1 [3]
  Activity: Dose-dependent effect
3T3-L1 [4]
  inhibition at 100 µM: 9.38%
3T3-L1 [1]
  Activity: 22.57%
3T3-L1 [5]
  Activity: 3.81 mmol/L
3T3-L1 [6]
  Activity: 4.35 mmol/L
3T3-L1 [7]
  Activity: 4.07 mmol/L
3T3-L1 [8]
  Activity: 4.82 mmol/L

## CCCCC/C=C\C=C\CCCCCCCCC(=O)Oc1ccc2c(c1)C(=O)/C(=C/c1cccc(OC)c1)O2
3T3-L1 [1]
  Activity: 6.45%

## CCCCCCCC/C=C\CCCCCCCC(=O)Oc1ccc2c(c1)C(=O)/C(=C/c1ccc(OC)c(OC)c1)O2
3T3-L1 [4]
  inhibition at 100 µM: 0%
3T3-L1 [1]
  Activity: 12.53%

## CCCCCCCCCCCCCCCCCC(=O)Oc1ccc2c(c1)C(=O)/C(=C/c1ccc(OC)c(OC)c1)O2
3T3-L1 [1]
  Activity: -3.84%

## C=CCCCCCCCCC(=O)Oc1ccc2c(=O)c(Cc3ccc(OC)cc3)coc2c1
3T3-L1 [1]
  Activity: -17.45%

## CCCCCCCC/C=C\CCCCCCCC(=O)Oc1ccc2c(c1)C(=O)/C(=C/c1ccc(Br)cc1)O2
3T3-L1 [4]
  inhibition at 100 µM: 16.6%
3T3-L1 [1]
  Activity: -6.62%

## CCCCC/C=C\C=C\CCCCCCCCC(=O)Oc1ccc2c(c1)C(=O)/C(=C/c1cccc([N+](=O)[O-])c1)O2
3T3-L1 [2]
  Activity: Dose-dependent effect
3T3-L1 [3]
  Activity: Dose-dependent effect
3T3-L1 [4]
  inhibition at 100 µM: 15.1%
3T3-L1 [1]
  Activity: -12.06%
3T3-L1 [5]
  Activity: 3.64 mmol/L
3T3-L1 [6]
  Activity: 4.29 mmol/L
3T3-L1 [7]
  Activity: 4.21 mmol/L
3T3-L1 [8]
  Activity: 4.95 mmol/L

## C=CCCCCCCCCC(=O)Oc1ccc2c(c1)C(=O)/C(=C/c1ccc(OC)cc1)O2
3T3-L1 [1]
  Activity: -2.09%

## CCCCCCCCCCCCCCCCCC(=O)Oc1ccc2c(c1)O/C(=C\c1ccc(OC)cc1)C2=O
3T3-L1 [4]
  inhibition at 100 µM: 0%
3T3-L1 [1]
  Activity: 11.43%

## CCCCCCCCCCCCCCCC(=O)Oc1ccc2c(c1)C(=O)/C(=C/c1cccc(OC)c1)O2
3T3-L1 [1]
  Activity: -20.26%

## C=CCCCCCCCCC(=O)Oc1ccc2c(c1)C(=O)/C(=C/c1cccc([N+](=O)[O-])c1)O2
3T3-L1 [1]
  Activity: -8.37%

## C=CCCCCCCCCC(=O)Oc1ccc2c(c1)O/C(=C\c1ccc(OC)cc1)C2=O
3T3-L1 [1]
  Activity: -1.39%

## CCCCCCCCCCCCCCCCCC(=O)Oc1ccc2c(c1)C(=O)/C(=C/c1cccc(OC)c1)O2
3T3-L1 [1]
  Activity: -10.94%

## C=CCCCCCCCCC(=O)Oc1ccc2c(c1)C(=O)/C(=C/c1ccc(Br)cc1)O2
3T3-L1 [1]
  Activity: 1.25%

## CCCCCCCC/C=C\CCCCCCCC(=O)Oc1ccc2c(c1)O/C(=C\c1ccc(OC)cc1)C2=O
3T3-L1 [2]
  Activity: Dose-dependent effect
3T3-L1 [3]
  Activity: Dose-dependent effect
3T3-L1 [9]
  fold change (FC): 2.39
3T3-L1 [10]
  fold change (FC): 2.39
3T3-L1 [11]
  fold change (FC): 2.39
3T3-L1 [4]
  inhibition at 100 µM: 14.3%
3T3-L1 [1]
  Activity: 22.18%
3T3-L1 [5]
  Activity: 4.94 mmol/L
3T3-L1 [6]
  Activity: 5.61 mmol/L
3T3-L1 [7]
  Activity: 5.48 mmol/L
3T3-L1 [8]
  Activity: 6.05 mmol/L

## CCCCCCCCCCCCCCCCCC(=O)Oc1ccc2c(c1)C(=O)/C(=C/c1ccc(Br)cc1)O2
3T3-L1 [1]
  Activity: 5.02%

## CCCCCCCCCCCCCCCCCC(=O)Oc1ccc2c(c1)C(=O)/C(=C/c1ccc(OC)cc1)O2
3T3-L1 [1]
  Activity: -10.93%

## CCc1ccc(CCOc2ccc(CC3SC(=O)NC3=O)cc2)nc1 (stereo unspecified) [PIOGLITAZONE]
3T3-L1 [2]
  Activity: Dose-dependent effect
3T3-L1 [3]
  Activity: Dose-dependent effect
3T3-L1 [5]
  Activity: 5.51 mmol/L
3T3-L1 [6]
  Activity: 6.75 mmol/L
3T3-L1 [7]
  Activity: 7.36 mmol/L
3T3-L1 [8]
  Activity: 8.15 mmol/L

## C=CCCCCCCCCC(=O)Oc1ccc2c(c1)C(=O)/C(=C/c1cccc(OC)c1)O2
3T3-L1 [1]
  Activity: 0.21%

## CCCCC/C=C\C=C\CCCCCCCCC(=O)Oc1ccc2c(=O)c(Cc3ccc(OC)cc3)coc2c1
3T3-L1 [1]
  Activity: -4.37%

## CCCCC/C=C\C=C\CCCCCCCCC(=O)Oc1ccc2c(c1)C(=O)/C(=C/c1cccc(Cl)c1)O2
3T3-L1 [1]
  Activity: -11.46%

## CCCCCCCC/C=C\CCCCCCCC(=O)Oc1ccc2c(c1)C(=O)/C(=C/c1ccc(OC)cc1)O2
3T3-L1 [2]
  Activity: Dose-dependent effect
3T3-L1 [3]
  Activity: Dose-dependent effect
3T3-L1 [4]
  inhibition at 100 µM: 11.7%
3T3-L1 [1]
  Activity: 17.69%
3T3-L1 [5]
  Activity: 4.48 mmol/L
3T3-L1 [6]
  Activity: 5.05 mmol/L
3T3-L1 [7]
  Activity: 4.91 mmol/L
3T3-L1 [8]
  Activity: 5.67 mmol/L

## CCCCC/C=C\C=C\CCCCCCCCC(=O)Oc1ccc2c(c1)C(=O)/C(=C/c1ccc(Br)cc1)O2
3T3-L1 [1]
  Activity: 11.09%

## CCCCCCCC/C=C\CCCCCCCC(=O)Oc1ccc2c(c1)C(=O)/C(=C/c1cccc(Cl)c1)O2
3T3-L1 [4]
  inhibition at 100 µM: 0%
3T3-L1 [1]
  Activity: 20.76%

## CCCCCCCC/C=C\CCCCCCCC(=O)Oc1ccc2c(=O)c(Cc3ccc(OC)cc3)coc2c1
3T3-L1 [2]
  Activity: Dose-dependent effect
3T3-L1 [3]
  Activity: Dose-dependent effect
3T3-L1 [4]
  inhibition at 100 µM: 47.5%
3T3-L1 [1]
  Activity: 1.88%
3T3-L1 [5]
  Activity: 2.71 mmol/L
3T3-L1 [6]
  Activity: 3.38 mmol/L
3T3-L1 [7]
  Activity: 3.49 mmol/L
3T3-L1 [8]
  Activity: 4.23 mmol/L

## CCCCC/C=C\C=C\CCCCCCCCC(=O)Oc1ccc2c(c1)C(=O)/C(=C/c1ccc(OC)cc1)O2
3T3-L1 [4]
  inhibition at 100 µM: 22.6%
3T3-L1 [1]
  Activity: -24.96%

## CCCCC/C=C\C=C\CCCCCCCCC(=O)Oc1ccc2c(c1)C(=O)/C(=C/c1ccc(OC)c(OC)c1)O2
3T3-L1 [2]
  Activity: Dose-dependent effect
3T3-L1 [3]
  Activity: Dose-dependent effect
3T3-L1 [4]
  inhibition at 100 µM: 1.88%
3T3-L1 [1]
  Activity: 20.72%
3T3-L1 [5]
  Activity: 2.99 mmol/L
3T3-L1 [6]
  Activity: 3.85 mmol/L
3T3-L1 [7]
  Activity: 3.71 mmol/L
3T3-L1 [8]
  Activity: 5.08 mmol/L

## C=CCCCCCCCCC(=O)Oc1ccc2c(c1)C(=O)/C(=C/c1ccc(OC)c(OC)c1)O2
3T3-L1 [1]
  Activity: -22.17%

## CCCCC/C=C\C=C\CCCCCCCCC(=O)Oc1ccc2c(c1)C(=O)/C(=C/c1ccc(F)cc1)O2
3T3-L1 [4]
  inhibition at 100 µM: 0%
3T3-L1 [1]
  Activity: 14.2%

## C=CCCCCCCCCC(=O)Oc1ccc2c(c1)C(=O)/C(=C/c1cccc(Cl)c1)O2
3T3-L1 [2]
  Activity: Dose-dependent effect
3T3-L1 [3]
  Activity: Dose-dependent effect
3T3-L1 [4]
  inhibition at 100 µM: 28.7%
3T3-L1 [1]
  Activity: 57.4%
3T3-L1 [5]
  Activity: 2.88 mmol/L
3T3-L1 [6]
  Activity: 3.56 mmol/L
3T3-L1 [7]
  Activity: 3.86 mmol/L
3T3-L1 [8]
  Activity: 4.49 mmol/L

## CCCCCCCCCCCCCCCC(=O)Oc1ccc2c(c1)C(=O)/C(=C/c1ccc(OC)cc1)O2
3T3-L1 [1]
  Activity: 1.19%

## CCCCCCCCCCCCCCCC(=O)Oc1ccc2c(c1)C(=O)/C(=C/c1ccc(F)cc1)O2
3T3-L1 [1]
  Activity: -0.47%
